Assay results reported in US20160354303A1, “Method, Compositions, And Kit For Modulating The Appearance Of Volume On Keratin Surfaces” (ELC MANAGEMENT LLC, priority 2014, published 2016).

Tested on: Human subcutaneous preadipocytes
Experiment: Adipocyte differentiation assay: inhibition of adipogenesis, glycerol liberated from triglyceride (Zen-Bio)
Type: cell-based
Conditions: for adipogenesis: inhibition in presence of 1 uM Rosiglitazone, OD at 540 nm, glycerol liberated from triglyceride, FIGS. 2 and 3
Method: Conjugated linoleic acid and resveratrol were tested for their ability to promote the appearance of decreased volume. Cell culture, treatment, and differentiation assay was performed by Zen-Bio, RTF, NC. Human subcutaneous preadipocytes, lot number: were cultured in 96-well plates. The donor information is as follows: • Lot #: L061103 • […] • […] • B.M.I.: 25.2 Stimulation was treated in the presence of 0.1 uM Rosiglitazone Maleate. Inhibition was treated in the presence of 1.0 uM Rosiglitazone Maleate. Day 1: Plated cells and allowed cells to adhere. Day 2: Changed medium to Initiation medium containing the compounds or controls. Day 5: Changed medium to Adipocyte medium with the compounds. Day 8: Changed medium to Adipocyte medium with the compounds. Day 11: Changed medium to Adipocyte medium with the compounds. Day 13: Cells were washed with PBS and lysed with the lysis buffer. Reagent B was added to each well and the cells were incubated at 37° C. for 2 hours. Aliquots of the lysates were diluted with PBS, then Reagent A was added to each well. The optical density was read at 540 nm after 15 minutes. The reagent measures the amount of glycerol liberated from triglyceride. Data were analyzed using a one-way ANOVA and significant means were tested by Bonferroni multiple comparison test using Instat software. Cell culture, treatment, and differentiation assay was performed by Zen-Bio, RTF, NC. Human subcutaneous preadipocytes, lot number: were cultured in 96-well plates. The donor information is as follows: • Lot#: SL0029 • Gender: Female (all lots) […] ([…]) Human subcutaneous preadipocytes were cultured in 96-well plates. Day 1: Plated cells and allowed cells to adhere. Day 2: Changed medium to Differentiation medium containing the compounds or controls. (0.1 uM Rosi for stimulation or 1 uM Rosi for inhibition) Day 9: Changed medium to Adipocyte medium plus compounds. Day 12: Changed medium to Adipocyte medium plus compounds. Day 16: Cells were washed with PBS and lysed with the lysis buffer. […] The optical density was read at 540 nm after 15 minutes. […]

| Compound | human adipocyte generation (after treatment with resveratrol, FIG. 2 legend) | adipogenesis |
| --- | --- | --- |
| Oc1ccc(C=Cc2cc(O)cc(O)c2)cc1 [resveratrol] | decrease in human adipocyte generation | effective in reducing adipogenesis |
| conjugated linoleic acid | – | effective in reducing adipogenesis |
